Measured values published in patent US20230321083A1, “Inhibitors of GPR174 and Uses Thereof” (Omeros Corporation, priority 2016, published 2023).
pEC50: −log10 of the molar value. Where “and” joins values, the source holds several entries; their conditions need not be identical. Equal entries are not always repeated.

Tests used:
Type in all cases: cell-based
[1] = molecular target: T1, GPR174 (Homo sapiens, UniProt Q9BXC1); assay: Cellular Redistribution Assay (CRA) against GPR174; set-up: fused on or other part: No tag or reporter is given; conditions: for pEC50: multiple values = separate experiments; for dose-response in CRA against GPR174: FIG. 5A
Excerpt: One method for identifying compounds capable of modulating a receptor is using a cellular redistribution assay (“CRA”). Exemplary CRA methods are found in U.S. Pat. No. 7,309,576 issued to O'Dowd et al. and in O'Dowd et al., J. Biomol. Screen. 12:175-85, 2007. […] Incorporation of the NLS alters the cellular localization of the GPCR, such that the majority of the NLS-modified receptor is present in the cell interior. An NLS-modified GPCR, when interacting with a functionally active compound, is mostly localized on the cell surface. Thus, it becomes possible to identify receptor modulators without knowledge of the endogenous ligand or a surrogate ligand.
The inventors have identified a number of compounds that inhibit GPR174 using a CRA assay similar to that described in U.S. Pat. No. 7,309,576 and in O'Dowd et al., J. Biomol. Screen. 12:175-85, 2007. These compounds are described in detail below.
(§1) The inventors used a CRA similar to that described in U.S. Pat. No. 7,309,576 and O'Dowd et al., J. Biomol. Screen. 12:175-85, 2007 to identify compounds that are capable of interacting with GPR174 using a library of approximately 370,000 chemical entities. Briefly described, the CRA assay described in U.S. Pat. No. 7,309,576 involves artificially inserting a NLS into the dopamine D1 receptor (DRD1), which allows the receptor to traffic from the cell membrane to the cell interior, and that the binding of antagonists to the receptor retained the receptor at the cell surface, while removal of the ligand allowed the receptor to continue to internalize from the cell surface. Both antagonists and agonists that selectively bound the receptor retained the receptor on the plasma membrane. GPR174 constructs were generated for use in a CRA-based compound screening assay. From this screen, the inventors initially identified compounds of formula I-VI, as described herein and included in TABLE 1.
Target sequence in this assay (Q9BXC1 1-290 limits assumed): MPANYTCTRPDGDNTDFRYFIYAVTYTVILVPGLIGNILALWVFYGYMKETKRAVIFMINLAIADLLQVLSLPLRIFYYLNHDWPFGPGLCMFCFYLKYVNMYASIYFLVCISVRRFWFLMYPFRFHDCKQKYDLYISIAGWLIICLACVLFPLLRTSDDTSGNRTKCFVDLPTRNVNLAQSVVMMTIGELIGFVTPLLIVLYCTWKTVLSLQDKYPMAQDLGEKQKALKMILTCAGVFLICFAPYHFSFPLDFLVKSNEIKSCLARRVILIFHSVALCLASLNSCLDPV

[2] = molecular target: T2, ADBR2 (Homo sapiens, UniProt P07550); assay: CRE-Luc reporter Gs signaling assay, control receptor ADBR2
T2 construct: host or cells: HEK293 or CHO cell lines (ATCC)
T2 sequence (P07550 whole entry): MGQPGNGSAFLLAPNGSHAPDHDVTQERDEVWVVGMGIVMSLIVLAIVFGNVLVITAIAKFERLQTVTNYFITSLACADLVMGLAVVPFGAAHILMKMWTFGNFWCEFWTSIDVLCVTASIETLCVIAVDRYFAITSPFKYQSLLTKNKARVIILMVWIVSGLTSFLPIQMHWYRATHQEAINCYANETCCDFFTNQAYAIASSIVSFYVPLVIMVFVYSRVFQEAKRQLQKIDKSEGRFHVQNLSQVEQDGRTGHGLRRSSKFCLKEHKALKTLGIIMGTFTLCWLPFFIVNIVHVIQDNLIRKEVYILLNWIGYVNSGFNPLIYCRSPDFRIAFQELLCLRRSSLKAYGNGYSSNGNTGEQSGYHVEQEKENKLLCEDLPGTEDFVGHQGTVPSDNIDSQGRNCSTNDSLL
Method: (§2) Compounds were tested in the reporter system with increasing concentrations of GPR174-interacting compounds. GPR174 construct pCMV6-XL4-GPR174 or ADBR2, reporter of interest, pCRE-Luc or GL4.29 (3000 ng), and TK-renilla as an internal control (10 ng) with lipofectamine 2000 (60 ug) (Invitrogen, CA) according to the manufacturer's directions.
(§3) The DNA/lipofectamine 2000 mix (3000 μL) was incubated at room temperature for 30 minutes and then added into a 10 cm culture dish (Corning, NY) containing 70-90% confluent cultured cells, typically HEK293 or CHO cell lines (ATCC, VA), in 15 mL of media. The cells were further incubated for 4-6 hours at 37° C. and then media were removed and cells were detached with 2 mL trypsin (Life Technologies, CA). Media (26 mL) were added to the detached cells and 120 μL of transfected cells were transferred to each well on a 96-well plate. Increasing concentration of each compound in DMSO (1.2 μl) was added to the cells after plating into the 96-well plate. The cells were further incubated at 37° C. for various times. The media were removed and the cells lysed. Luciferase and renilla activities were measured with the Dual-luciferase assay system (Promega, WI) according to the manufacturer's directions. Typically, lysis buffer (25 μL) was added to the cells and incubated at room temperature for 20-30 minutes to allow for the cells to lyse. The lysate (10 μL) was measured for luciferase and renilla activity with LARII and Stop&Glo reagent (50 μL each) with a SpectraMax L (Molecular Devices, CA). Data were analyzed with either Excel (Microsoft, WA) or Prism 4.03 (GraphPad, CA).
(§4) ADBR2 is a GPCR, like GPR174, that activates the Gs signaling pathway.

[3] = molecular target: T1, GPR174; assay: CRE-Luc reporter Gs signaling assay, cells transfected with GPR174; set-up: host or cells: HEK293 or CHO cell lines (ATCC); conditions: for effect on Gs pathway in the presence of GPR174: CRE-Luc reporter; for nature of compound in GPR174 signaling assay: human GPR174 with pCRE-Luc
Method: as §2, §3, §4
Target sequence in this assay (Q9BXC1 whole entry, the tested form may be a part): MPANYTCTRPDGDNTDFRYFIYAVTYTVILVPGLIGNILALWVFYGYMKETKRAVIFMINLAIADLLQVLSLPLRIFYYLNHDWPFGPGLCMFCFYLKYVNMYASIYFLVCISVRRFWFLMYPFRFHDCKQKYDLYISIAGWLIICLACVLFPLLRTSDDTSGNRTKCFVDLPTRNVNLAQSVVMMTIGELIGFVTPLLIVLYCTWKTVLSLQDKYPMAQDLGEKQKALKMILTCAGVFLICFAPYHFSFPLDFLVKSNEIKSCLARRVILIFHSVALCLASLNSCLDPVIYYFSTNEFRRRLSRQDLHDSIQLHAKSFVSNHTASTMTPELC

[4] = system: CHRM1; assay: Cellular Redistribution Assay (CRA) against CHRM1; conditions: FIG. 5B
Excerpt: as §1
The inventors also sought to validate that the compounds identified using the CRA are modulatory compounds. To this end, the above-described CRA was used to screen a library for compounds that interact with three control non-orphan receptors, and the results of this screen were compared to the results of screening the same library for compound that were identified using a Fluorometric Imaging Plate Reader (FLIPR) assay, a conventional technique commonly used to identify compounds interacting with non-orphan GPCRs signaling through Ca+. Three non-orphan GPCRs—Muscarinic acetylcholine receptor M1 (CHRM1), Adrenergic receptor alpha 1a (ADRA1a), and Neuropeptide S receptor (NPSR)—were screened against a 10,000-compound GPCR-focused library. Thirty interacting compound “hits” were identified using the CRA, and eighty-one hits were identified using the FLIPR for the CHRM1 receptor; 9 CRA hits and 29 FLIPR hits for the NPS receptor were identified; and 110 CRA hits and 110 FLIPR hits for ADRA1a.
In addition, the CRA can also provide the relative potencies of compounds against the target receptor.

[5] = system: human PBMCs; assay: Cytokines in culture supernatants of stimulated human PBMCs (ELISA / LEGENDplex); conditions: data not shown
Method: The effect of compound #10 on IL-2 and IFN-γ production in human PBMCs was determined as follows. PBMCs from a single donor were adjusted to a density of 2×10^6 cells/mL, stimulated with 100 ng/mL of anti-CD3 and 100 ng/mL of anti-CD28 antibodies and treated with 1 μM, 3 μM, or 10 μM of compound #10. Supernatant from these cells was taken on day 2 post-stimulation and the levels of IL-2 and IFN-γ were determined by ELISA assay using Ready-SET-Go ELISA kits from Affimetrix Ebioscience according to the manufacturer's instructions.
The effect of compound #10 on IL-2 production in human PBMCs was determined as follows. […] Supernatant from these cells was taken on day 3 post-stimulation and the levels of IL-2 were determined by ELISA assay using Ready-SET-Go™ ELISA kits from Affimetrix Ebioscience and LEGENDplex™ bead-based immunoassays from BioLegend according to the manufacturer's instructions.
The effect of compound #10 on IL-2 production in human PBMC from each donor was determined as follows. PBMC from each donor were adjusted to a density of 2×10^6 cells/mL, stimulated with 100 ng/mL of anti-CD3 and 100 ng/mL of anti-CD28 antibodies and treated with 30 μM compound #10. Supernatant from these cells was taken on day 2 post-stimulation and the levels of IL-2 were determined by ELISA assay using LEGENDplex™ bead-based immunoassays from BioLegend (San Diego, CA) according to the manufacturer's instructions.
The effect of compound #10 on the production of a panel of additional cytokines (interleukin 5 (IL-5), interleukin 13 (IL-13), interleukin 6 (IL-6), interleukin 9 (IL-9), interleukin 10 (IL-10), interferon gamma (IFN-γ), tumor necrosis factor alpha (TNF-α), interleukine 17A (IL-17A), interleukin 17F (IL-17F), interleukin 4 (IL-4) and interleukin 22 (IL-22)) in pooled human PBMC obtained from eight donors was determined as follows. PBMC from eight donors were pooled, then adjusted to a density of 2×10^6 cells/mL, stimulated with 100 ng/mL of anti-CD3 and 100 ng/mL of anti-CD28 antibodies and treated with 30 μM compound #10. Supernatant from these cells was taken on day 2 post-stimulation and the levels of IL-5, IL-13, IL-6, IL-9, IL-10, IFN-γ, TNF-α, IL-17A, IL-17F, IL-4 and IL-22 were determined by ELISA using LEGENDplex™ bead-based immunoassays from BioLegend (San Diego, CA) according to the manufacturer's instructions.

SMILES	effect on Gs pathway in the presence of ADBR2 [2]	effect on Gs pathway in the presence of GPR174 [3]	Human GPR174 CRE Activity: nature of compound [3]	nature of compound in GPR174 signaling assay [3]	other results
CC1CCN(c2cc(N3CCN(C(=O)c4cccs4)CC3)c([N+](=O)[O-])cc2F)CC1 [Compound 12]					pEC50 [1]: 6.52
COc1ccc(C2C3=C(CCCC3=O)NC3=C2C(=O)c2ccccc23)cc1 (centres unmarked) [Compound 22]	did not inhibit the Gs pathway	inhibited the Gs pathway			pEC50 [1]: 5.17 and 5.28
O=C1CCCC2=C1C(c1ccc3c(c1)OCCO3)C1=C(N2)c2ccccc2C1=O (centres unmarked) [Compound 36]	did not inhibit the Gs pathway	inhibited the Gs pathway			
Cc1cc(C(=O)N/N=C/c2cc(Br)ccc2O)c(C)o1 [Compound 58]			Antagonist or allosteric modulator	GPR174 antagonists or allosteric modulators	pEC50 [1]: 5.43
O=[N+]([O-])c1cc(F)c(N2CCCCC2)cc1N1CCN(S(=O)(=O)c2ccccc2)CC1 [Compound 11]	did not inhibit the Gs pathway	inhibited the Gs pathway			pEC50 [1]: 5.82
C=C(C)COc1ccc(NC(=O)Nc2ccccc2)cc1 [Compound 56]				inverse agonist	
O=C1CCCC2=C1C(c1ccncc1)C1=C(N2)c2ccccc2C1=O (centres unmarked) [Compound 42]	did not inhibit the Gs pathway	inhibited the Gs pathway			
CCCCOc1ccc(C2C3=C(CCCC3=O)NC3=C2C(=O)c2ccccc23)cc1 (centres unmarked) [Compound 31]	did not inhibit the Gs pathway	inhibited the Gs pathway			
O=C(N/N=C/c1cc(Cl)ccc1O)c1ccncc1 [Compound 57]			Antagonist or allosteric modulator	GPR174 antagonists or allosteric modulators	pEC50 [1]: 5.25
CCOC(=O)N1CCN(c2cc(N3CCCCC3)c(F)cc2[N+](=O)[O-])CC1 [Compound 7]	did not inhibit the Gs pathway	inhibited the Gs pathway			
CCOc1ccc(C2C3=C(CCCC3=O)NC3=C2C(=O)c2ccccc23)cc1 (centres unmarked) [Compound 23]	did not inhibit the Gs pathway	inhibited the Gs pathway			
CC(=O)c1ccc(N2CCN(C(=O)c3ccc(F)cc3)CC2)c(F)c1 [Compound 3]			Antagonist or allosteric modulator		activity in CRA against CHRM1 [4]: do not show any activity against CHRM1; dose-response in CRA against GPR174 [1]: show a dose-response curve against GPR174
Cc1ccccc1Nc1nnc(-c2ccc(C)c(S(N)(=O)=O)c2)c2ccccc12 [Compound 20]			Antgonist or allosteric modulator	non-modulators	activity in CRA against CHRM1 [4]: do not show any activity against CHRM1; dose-response in CRA against GPR174 [1]: show a dose-response curve against GPR174
Cc1cc(Cc2ccc(NC(=O)c3cccs3)c(C)c2)ccc1NC(=O)c1cccs1 [Compound 21]	did not modulate the Gs pathway	did not modulate the Gs pathway	Antagonist or allosteric modulator	non-modulator	
Cc1ccc(-c2nnc(Nc3ccccc3)c3ccccc23)cc1S(N)(=O)=O [Compound 19]	did not modulate the Gs pathway	did not modulate the Gs pathway	Antagonist or allosteric modulator	non-modulators	
O=C(c1ccccc1)N1CCN(c2cc(N3CCCCC3)c(F)cc2[N+](=O)[O-])CC1 [Compound 6]	did not inhibit the Gs pathway	inhibited the Gs pathway			IL-2 levels in PBMC cultures [5]: increased IL-2 levels
O=C1CCCC2=C1C(c1ccc(OCCO)cc1)C1=C(N2)c2ccccc2C1=O (centres unmarked) [Compound 33]	did not inhibit the Gs pathway	inhibited the Gs pathway			
